Results from ChEMBL document CHEMBL1141549, “Synthesis and antihyperglycemic activity of novel N-acyl-2-arylethylamines and N-acyl-3-coumarylamines” (2008).

Tested on: Rattus norvegicus
Test: Antihyperglycemic activity in sucrose loaded diabetic Sprague-Dawley rat model assessed as reduction of plasma glucose levels at 100 mg/kg, po
Assay type: functional
Set-up: scale not given: the % may be the effect or the level left

Row | Compound | Activity [%]
1 | COc1cc(/C=C/C(=O)NCCc2ccc(OC)c(OC)c2)ccc1O | 30.7
2 | COc1ccc(CCNC(=O)/C=C/c2cc(OC)c(OC)c(OC)c2)cc1OC | 2.41
3 | COc1ccc(/C=C/C(=O)NCCc2ccc(OC)c(OC)c2)cc1 | 19.5
4 | COc1ccc(CCNC(=O)/C=C/c2ccccc2)cc1OC | 20.1
5 | COc1ccc(CCNC(=O)/C=C/c2ccc(F)cc2)cc1OC | 23.4
6 | COc1ccc(CCNC(=O)/C=C/c2ccc(Cl)cc2)cc1OC | 21.5
7 | COc1ccc(CCNC(=O)/C=C/c2cccc(C(F)(F)F)c2)cc1OC | 32.8
8 | O=C(/C=C/c1ccccc1)Nc1cc2ccccc2oc1=O | 22.3
9 | CC(C)(C)c1cc(C(C)(C)C)c2oc(=O)c(NC(=O)/C=C/c3cccc(C(F)(F)F)c3)cc2c1 | 21.1
10 | O=C(Nc1cc2ccccc2oc1=O)c1ccccc1 | 10.7
11 | CC(C)(C)c1cc(C(C)(C)C)c2oc(=O)c(NC(=O)c3ccccc3)cc2c1 | 23.3
12 | COc1cccc(/C=C/C(=O)NCCc2ccc(OC)c(OC)c2)c1 | 25.2
13 | CC(C)(C)c1cc(C(C)(C)C)c2oc(=O)c(NC(=O)/C=C/c3ccccc3)cc2c1 | 8.89
14 | COc1ccc(Cl)cc1C(=O)NCCc1ccc(S(=O)(=O)NC(=O)NC2CCCCC2)cc1 [GLYBURIDE] | 33.7
15 | CN(C)C(=N)NC(=N)N [METFORMIN] | 12.9
